How the values were obtained:
[1] = AUC in athymic CD1 nude mouse at 25 mg/kg, po by LC/MS/MS analysis; assay type: ADME, organism-based; design: dose 25 mg/kg, route oral; settings: plasma
[2] = target: T1, Cytochrome P450 1A2 (Homo sapiens, UniProt P05177); assay: Inhibition of CYP1A2 (unknown origin) by fluorescence assay; assay type: ADME
T1 sequence (P05177 whole entry): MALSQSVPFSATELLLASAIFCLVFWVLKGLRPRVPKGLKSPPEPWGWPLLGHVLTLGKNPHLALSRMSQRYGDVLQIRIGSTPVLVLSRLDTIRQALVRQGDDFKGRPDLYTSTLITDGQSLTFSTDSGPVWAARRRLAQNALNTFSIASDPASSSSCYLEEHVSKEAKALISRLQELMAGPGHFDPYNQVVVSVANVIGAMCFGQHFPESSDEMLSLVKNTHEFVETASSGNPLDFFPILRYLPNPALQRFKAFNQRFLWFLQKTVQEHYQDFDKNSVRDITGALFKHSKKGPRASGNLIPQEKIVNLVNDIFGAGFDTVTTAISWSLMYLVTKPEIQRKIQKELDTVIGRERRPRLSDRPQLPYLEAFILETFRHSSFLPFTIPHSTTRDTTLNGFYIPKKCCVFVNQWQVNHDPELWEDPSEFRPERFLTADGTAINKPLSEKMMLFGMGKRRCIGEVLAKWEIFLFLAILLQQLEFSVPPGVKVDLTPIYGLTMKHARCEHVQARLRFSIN

[3] = target: T2, Cytochrome P450 3A4 (Homo sapiens, UniProt P08684); assay: Inhibition of CYP3A4 (unknown origin) using DBF as substrate by fluorescence assay
[4] = tested on: MDA-MB-231; assay: Growth inhibition of human MDA-MB-231 cells after 5 days by SRB assay; assay type: functional
[5] = Cmax in athymic CD1 nude mouse at 25 mg/kg, po by LC/MS/MS analysis; assay type: ADME, organism-based; design: dose 25 mg/kg, route oral; settings: in vivo
[6] = target: T2, Cytochrome P450 3A4; assay: Inhibition of CYP3A4 (unknown origin) using BFC as substrate by fluorescence assay
[7] = target: Cytochrome P450 2D6 (Homo sapiens, UniProt P10635); assay: Inhibition of CYP2D6 (unknown origin) by fluorescence assay; assay type: ADME
[8] = Half life in human liver microsomes
[9] = tested on: MDA-MB-468; assay: Growth inhibition of human MDA-MB-468 cells after 5 days by SRB assay; assay type: functional
[10] = tested on: MCF7; assay: Growth inhibition of human MCF7 cells after 5 days by SRB assay; assay type: functional
[11] = tested on: HMEC; assay: (§1) Growth inhibition of human HMEC cells after 5 days by SRB assay; assay type: cell-based; settings: hmec, 120 h
[12] = AUC(infinity) in Sprague-Dawley rat at 1 mg/kg, iv; assay type: ADME, organism-based; design: time infinity, dose 1 mg/kg, route intravenous; settings: plasma
[13] = AUC(infinity) in beagle dog at 1 mg/kg, iv; assay type: ADME, organism-based, Canis lupus familiaris; design: time infinity, dose 1 mg/kg, route intravenous; settings: plasma
[14] = Antitumor activity against human HCT116 cells xenografted in athymic CD-1 nude mouse assessed as tumor growth inhibition at MTD, po qd administered 1-on/3-off schedule up to day 21; assay type: functional, HCT-116
[15] = tested on: SW-620; assay: Growth inhibition of human SW620 cells after 5 days by SRB assay; assay type: functional; settings: SW-620, 120 h
[16] = Growth inhibition of human COLO205 cells after 5 days by SRB assay; assay type: functional; settings: COLO 205, 120 h
[17] = tested on: HCC1954; assay: Growth inhibition of human HCC1954 cells after 5 days by SRB assay; assay type: functional; settings: Homo sapiens, HCC1954, 120 h
[18] = tested on: A549; assay: Antitumor activity against human A549 cells xenografted in CB-17 SCID mouse assessed as tumor growth inhibition at 3 mg/kg, po qd administered for 21 days; assay type: functional; settings: A549, 504 h, read-out: TGI
[19] = target: Cytochrome P450 2C19 (Homo sapiens, UniProt P33261); assay: Inhibition of CYP2C19 (unknown origin) by fluorescence assay
[20] = Growth inhibition of human BT20 cells after 5 days by SRB assay; assay type: functional; settings: BT-20, 120 h
[21] = Half life in beagle dog at 1 mg/kg, iv; assay type: ADME, organism-based, Canis lupus familiaris; design: dose 1 mg/kg, route intravenous; settings: in vivo
[22] = Half life in dog liver microsomes; settings: microsomes
[23] = AUC(infinity) in beagle dog at 5 mg/kg, po; assay type: ADME, organism-based, Canis lupus familiaris; design: time infinity, dose 5 mg/kg, route oral; settings: plasma
[24] = Half life in mouse liver microsomes; settings: microsomes
[25] = Antitumor activity against human SW620 cells xenografted in CB-17 SCID mouse assessed as tumor growth inhibition at 3 mg/kg, po qd administered for 21 days; assay type: functional; settings: SW-620, 504 h, read-out: TGI
[26] = Antitumor activity against human SW620 cells xenografted in CB-17 SCID mouse assessed as tumor growth inhibition at 9.4 mg/kg, po qd administered for 21 days; assay type: functional; settings: SW-620, 504 h, read-out: TGI
[27] = Growth inhibition of human HCT116 cells after 5 days by SRB assay; assay type: functional; settings: HCT-116, 120 h
[28] = Half life in Sprague-Dawley rat at 1 mg/kg, iv; assay type: ADME, organism-based; design: dose 1 mg/kg, route intravenous; settings: in vivo
[29] = Oral bioavailability in beagle dog at 5 mg/kg; assay type: ADME, organism-based, Canis lupus familiaris; settings: in vivo
[30] = Growth inhibition of human SKBR3 cells after 5 days by SRB assay; assay type: functional; settings: SK-BR-3, 120 h
[31] = Growth inhibition of human OVCAR3 cells after 5 days by SRB assay; assay type: functional; settings: OVCAR-3, 120 h
[32] = tested on: Mus musculus; assay: Toxicity in CB-17 SCID mouse xenografted with human A549 cells assessed as death at 9.4 mg/kg, po qd administered for 21 days; assay type: organism-based; design: dose 9.4 mg/kg, route oral; settings: in vivo, 504 h
[33] = tested on: MDA-MB-468; assay: Antitumor activity against human MDA-MB-468 cells xenografted in CB-17 SCID mouse assessed as tumor growth inhibition at 3 mg/kg, po qd administered for 21 days; assay type: functional; settings: MDA-MB-468, 504 h, read-out: TGI
[34] = Oral bioavailability in Sprague-Dawley rat at 5 mg/kg; assay type: ADME, organism-based; settings: in vivo
[35] = tested on: A549; assay: Growth inhibition of human A549 cells after 5 days by SRB assay; assay type: functional; settings: A549, 120 h
[36] = Half life in rat liver microsomes; settings: microsomes
[37] = Growth inhibition of human CAL51 cells after 5 days by SRB assay; assay type: functional; settings: CAL-51, 120 h
[38] = Toxicity in po dosed athymic CD-1 nude mouse xenografted with human HCT116 cells administered qd 1-on/3-off schedule up to day 21; assay type: organism-based, HCT-116; settings: CD-1 athymic nude, in vivo
[39] = tested on: MDA-MB-468; assay: Antitumor activity against human MDA-MB-468 cells xenografted in CB-17 SCID mouse assessed as tumor growth inhibition at 9.4 mg/kg, po qd administered for 21 days; assay type: functional; settings: MDA-MB-468, 504 h, read-out: TGI
[40] = target: Cytochrome P450 2C9 (Homo sapiens, UniProt P11712); assay: Inhibition of CYP2C9 (unknown origin) by fluorescence assay
[41] = as §1; assay type: cell-based; settings: HMEC cells
[42] = AUC(infinity) in Sprague-Dawley rat at 5 mg/kg, po; assay type: ADME, organism-based; design: dose 5 mg/kg, route oral, time infinity; settings: plasma

T2 sequence (P08684 whole entry): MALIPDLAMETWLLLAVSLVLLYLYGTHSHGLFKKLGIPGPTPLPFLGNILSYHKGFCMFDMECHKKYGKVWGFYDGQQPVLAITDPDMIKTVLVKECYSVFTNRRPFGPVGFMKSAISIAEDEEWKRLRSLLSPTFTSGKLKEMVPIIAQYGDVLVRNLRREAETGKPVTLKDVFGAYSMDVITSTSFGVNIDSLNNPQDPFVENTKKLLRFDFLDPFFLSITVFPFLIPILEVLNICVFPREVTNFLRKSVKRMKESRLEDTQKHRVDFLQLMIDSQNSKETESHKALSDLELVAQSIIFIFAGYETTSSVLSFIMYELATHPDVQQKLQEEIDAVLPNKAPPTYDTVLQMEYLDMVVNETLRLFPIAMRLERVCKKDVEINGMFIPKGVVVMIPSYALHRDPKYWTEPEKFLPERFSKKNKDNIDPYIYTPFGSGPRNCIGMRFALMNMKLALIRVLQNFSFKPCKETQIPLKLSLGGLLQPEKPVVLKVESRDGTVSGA
Chain of Cytochrome P450 2D6 (P10635 whole entry): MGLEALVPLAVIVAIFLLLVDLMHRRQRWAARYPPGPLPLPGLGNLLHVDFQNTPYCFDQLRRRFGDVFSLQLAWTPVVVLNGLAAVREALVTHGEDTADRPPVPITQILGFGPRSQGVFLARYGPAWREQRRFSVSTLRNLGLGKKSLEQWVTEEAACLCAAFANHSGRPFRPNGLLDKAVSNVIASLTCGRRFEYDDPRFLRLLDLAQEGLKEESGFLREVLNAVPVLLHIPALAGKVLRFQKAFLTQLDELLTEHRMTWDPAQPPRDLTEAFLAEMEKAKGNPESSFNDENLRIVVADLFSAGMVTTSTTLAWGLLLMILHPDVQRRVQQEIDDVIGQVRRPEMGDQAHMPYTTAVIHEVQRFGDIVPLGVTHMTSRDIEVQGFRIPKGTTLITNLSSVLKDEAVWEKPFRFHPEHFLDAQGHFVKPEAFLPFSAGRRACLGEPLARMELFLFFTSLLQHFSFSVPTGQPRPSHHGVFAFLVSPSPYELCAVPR
Chain of Cytochrome P450 2C9 (P11712 whole entry): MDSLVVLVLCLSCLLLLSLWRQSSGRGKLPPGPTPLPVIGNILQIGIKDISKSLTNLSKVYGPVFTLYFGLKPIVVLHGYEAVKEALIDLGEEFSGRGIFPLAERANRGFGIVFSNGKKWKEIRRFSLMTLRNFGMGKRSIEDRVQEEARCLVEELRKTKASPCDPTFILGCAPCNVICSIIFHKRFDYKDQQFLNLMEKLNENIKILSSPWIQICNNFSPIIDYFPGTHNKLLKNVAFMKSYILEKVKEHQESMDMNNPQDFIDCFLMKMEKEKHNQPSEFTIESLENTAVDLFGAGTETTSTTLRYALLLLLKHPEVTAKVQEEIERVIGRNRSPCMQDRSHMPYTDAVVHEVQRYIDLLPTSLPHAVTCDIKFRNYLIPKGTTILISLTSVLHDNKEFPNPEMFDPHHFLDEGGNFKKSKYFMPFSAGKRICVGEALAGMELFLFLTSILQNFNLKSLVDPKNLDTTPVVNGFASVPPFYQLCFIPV
Chain of Cytochrome P450 2C19 (P33261 whole entry): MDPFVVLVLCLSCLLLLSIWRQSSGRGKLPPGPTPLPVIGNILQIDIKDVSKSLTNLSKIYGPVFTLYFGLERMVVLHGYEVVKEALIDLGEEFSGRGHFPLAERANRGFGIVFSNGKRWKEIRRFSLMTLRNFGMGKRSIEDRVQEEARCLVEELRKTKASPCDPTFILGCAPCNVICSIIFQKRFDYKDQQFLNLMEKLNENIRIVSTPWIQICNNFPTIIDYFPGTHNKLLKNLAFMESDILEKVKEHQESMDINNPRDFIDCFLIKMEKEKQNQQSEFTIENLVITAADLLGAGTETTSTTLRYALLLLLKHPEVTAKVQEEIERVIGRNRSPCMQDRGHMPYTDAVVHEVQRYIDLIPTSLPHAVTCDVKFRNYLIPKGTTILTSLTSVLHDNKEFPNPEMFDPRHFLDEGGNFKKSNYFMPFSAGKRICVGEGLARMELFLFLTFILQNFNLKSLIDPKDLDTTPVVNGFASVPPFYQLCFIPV

## CN(C)Cc1ccc(/C=C/c2n[nH]c3cc([C@@H]4C[C@@]45C(=O)Nc4ccccc45)ccc23)cc1
[1]
  AUC: 260 ng·h/mL
[2]
  inhibition (INH): Not Active
[3]
  IC50: 10000 nM
[4]
  GI50: 820 nM
[5]
  Cmax: 110 ng/mL
[6]
  IC50: 5000 nM
[7]
  inhibition (INH): Not Active
[8]; liver microsomes
  half-life: > 60 min
[9]
  GI50: < 1 nM
[10]
  GI50: 250 nM
[11]
  GI50: 19000 nM

## COc1ccc2c(c1)[C@]1(C[C@H]1c1ccc3c(/C=C/c4ccc(CN5CCOCC5)cc4)n[nH]c3c1)C(=O)N2C
[1]
  AUC: 17000 ng·h/mL
[12]
  AUC(0-inf): 553 ng·h/mL
[13]
  AUC(0-inf): 648 ng·h/mL
[14]
  TGI: 90%
[15]
  GI50: 600 nM
[16]
  GI50: 7 nM
[17]
  GI50: < 10 nM
[18]
  inhibition in vivo at 3 mg/kg: 46%
[19]
  IC50: 1000 nM
[20]
  GI50: 55 nM
[2]
  inhibition (INH): Not Active
[21]
  half-life: 180 min
[22]
  half-life: 13 min
[23]
  AUC(0-inf): 1030 ng·h/mL
[24]
  half-life: 24 min
[3]
  IC50: 6000 nM
[25]
  inhibition in vivo at 3 mg/kg: 47%
[26]
  inhibition in vivo at 9.4 mg/kg: 77%
[27]
  GI50: 5 nM
[4]; Homo sapiens, MDA-MB-231, 120 h
  GI50: 20000 nM
[28]
  half-life: 78 min
[5]
  Cmax: 5900 ng/mL
[29]
  bioavailability: 32%
[6]
  IC50: 20000 nM
[30]
  GI50: 6500 nM
[7]
  inhibition (INH): Not Active
[31]
  GI50: 7 nM
[8]; microsomes
  half-life: 37 min
[32]
  Activity: Toxic
[33]
  inhibition in vivo at 3 mg/kg: 61%
[9]; Homo sapiens, MDA-MB-468, 120 h
  GI50: < 10 nM
[34]
  bioavailability: 25%
[35]
  GI50: 4 nM
[36]
  half-life: 6.4 min
[37]
  GI50: 110 nM
[38]
  MTD at 21 days: 39 mg/kg
[39]
  inhibition in vivo at 9.4 mg/kg: 96%
[10]; Homo sapiens, MCF7, 120 h
  GI50: < 10 nM
[40]
  IC50: 1000 nM
[41]
  GI50 at 120 h: > 30000 nM
[42]
  AUC(0-inf): 688 ng·h/mL

— ChEMBL document CHEMBL3407349, “The discovery of Polo-like kinase 4 inhibitors: identification of (1R,2S).2-(3-((E).4-(((cis).2,6-dimethylmorpholino)methyl)styryl). 1H.indazol-6-yl)-5'-methoxyspiro[cyclopropane-1,3'-indolin]-2'-one (CFI-400945) as a potent, orally active antitumor agent” (J Med Chem, 2015)
